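Following 48 hours of exposure in 96-well plates, responses at five concentrations were used to interpolate endpoints linearly. GI50 is the concentration that inhibits growth by half. TGI is the concentration that stops growth completely.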

One test relates to DU-145 prostate. Put plainly: NCI anticancer screen, dose series, 48 h.
As for `CCCN=C1CC(C)Nc2ccccc2N1` (configuration not stated), the TGI was more than 100 µM.
As for `COC(=O)C1=C(C(=O)OC)C2OC1C1C2C2(C)C(C)=C(C)C1(C)S2=O` (configuration not stated), the TGI came to 21.1 µM.
Same read-out and setting: the figure for `C=CCN(CC=C)Cn1c(=S)sc2ccccc21` is more than 100 µM.
Same read-out and setting: then `CC[C@@H]1CC[C@@H]2[C@H](CC[C@]3(C)[C@@H](O)CC[C@@H]23)[C@H]1C(=O)O`, with more than 100 µM; and `CCOC(=O)c1c(NC(=O)c2ccccc2)sc2c1CCCC2`, with more than 100 µM.

The subject of a further test is SK-MEL-28 melanoma. Put plainly: NCI anticancer screen, dose series, 48 h.
`O=C1CC(O)c2c1csc2Br` (configuration not stated) registered a TGI of 45.1 µM.
With `CCCCCCCCCC[C@@H](O)[C@H]1CC[C@H]([C@H]2CC[C@H]([C@H](O)CCCCCCCCCC[C@@H]3CC(CC(C)=O)C(=O)O3)O2)O1` (some centres not stated), the GI50 is 5.26 µM and the TGI is more than 50 µM.
The compound `CCOC(=O)c1cc2c([N+](=O)[O-])c(NC(C)=O)ccc2s1` registered a TGI of more than 100 µM.
In turn, `Cc1ccc2c(c1C)CC1(Cc3c(ccc4c3CCC4)C1=O)C2=O` (configuration not stated) came in with a TGI of more than 100 µM.
The same measure, in the same setting: then `CCC(=O)C(c1ccccc1)c1ccccn1` (configuration not stated), with more than 100 µM.
On the same count and under the same terms, then `CCCN=C1CC(C)Nc2ccccc2N1` (configuration not stated), with more than 100 µM.
`COC(=O)C1=C(C(=O)OC)C2OC1C1C2C2(C)C(C)=C(C)C1(C)S2=O` (configuration not stated): the TGI was 33.8 µM.
On the same count and under the same terms, the figure for `C=CCN(CC=C)Cn1c(=S)sc2ccccc21` is more than 100 µM; for `CC[C@@H]1CC[C@@H]2[C@H](CC[C@]3(C)[C@@H](O)CC[C@@H]23)[C@H]1C(=O)O` it is more than 100 µM.
On to `CCOC(=O)c1c(NC(=O)c2ccccc2)sc2c1CCCC2`, for which the TGI was more than 100 µM.

Another test has as its system SK-MEL-5 melanoma. Description: NCI anticancer screen, dose series, 48 h.
Regarding `O=C1CC(O)c2c1csc2Br` (configuration not stated), the TGI is more than 100 µM.
As to `CCCCCCCCCC[C@@H](O)[C@H]1CC[C@H]([C@H]2CC[C@H]([C@H](O)CCCCCCCCCC[C@@H]3CC(CC(C)=O)C(=O)O3)O2)O1` (some centres not stated), the GI50 is 1.97 µM and the TGI was more than 21.5 µM.
In turn, `CCOC(=O)c1cc2c([N+](=O)[O-])c(NC(C)=O)ccc2s1` gave a TGI of more than 100 µM.
Still for that read-out and setting: the figure for `Cc1ccc2c(c1C)CC1(Cc3c(ccc4c3CCC4)C1=O)C2=O` (configuration not stated) is more than 100 µM; for `CCC(=O)C(c1ccccc1)c1ccccn1` (configuration not stated) it is more than 100 µM; for `CCCN=C1CC(C)Nc2ccccc2N1` (configuration not stated) it is more than 100 µM.
On the same count and under the same terms, then `COC(=O)C1=C(C(=O)OC)C2OC1C1C2C2(C)C(C)=C(C)C1(C)S2=O` (configuration not stated), with 19.2 µM; and `C=CCN(CC=C)Cn1c(=S)sc2ccccc21`, with more than 100 µM; and `CC[C@@H]1CC[C@@H]2[C@H](CC[C@]3(C)[C@@H](O)CC[C@@H]23)[C@H]1C(=O)O`, with more than 100 µM.
The same measure, in the same setting: the figure for `CCOC(=O)c1c(NC(=O)c2ccccc2)sc2c1CCCC2` is more than 100 µM.

The subject of another test is MALME-3M melanoma. Put plainly: NCI anticancer screen, dose series, 48 h.
`O=C1CC(O)c2c1csc2Br` (configuration not stated) had a TGI of 82.4 µM.
The same measure, in the same setting: the figure for `CCCCCCCCCC[C@@H](O)[C@H]1CC[C@H]([C@H]2CC[C@H]([C@H](O)CCCCCCCCCC[C@@H]3CC(CC(C)=O)C(=O)O3)O2)O1` (some centres not stated) is more than 50 µM; for `CCOC(=O)c1cc2c([N+](=O)[O-])c(NC(C)=O)ccc2s1` it is more than 100 µM.
On the same count and under the same terms, the figure for `Cc1ccc2c(c1C)CC1(Cc3c(ccc4c3CCC4)C1=O)C2=O` (configuration not stated) is more than 100 µM; for `CCC(=O)C(c1ccccc1)c1ccccn1` (configuration not stated) it is more than 100 µM.
On the same count and under the same terms, the figure for `CCCN=C1CC(C)Nc2ccccc2N1` (configuration not stated) is more than 100 µM.
For the compound `COC(=O)C1=C(C(=O)OC)C2OC1C1C2C2(C)C(C)=C(C)C1(C)S2=O` (configuration not stated), the TGI was 20.9 µM.
Still for that read-out and setting: then `CC[C@@H]1CC[C@@H]2[C@H](CC[C@]3(C)[C@@H](O)CC[C@@H]23)[C@H]1C(=O)O`, with more than 100 µM.
The compound `CCOC(=O)c1c(NC(=O)c2ccccc2)sc2c1CCCC2` had a TGI of more than 100 µM.

Another test concerns UACC-62 melanoma. Description: NCI anticancer screen, dose series, 48 h.
Compound `O=C1CC(O)c2c1csc2Br` (configuration not stated) gave a TGI of 59 µM.
In the case of `CCCCCCCCCC[C@@H](O)[C@H]1CC[C@H]([C@H]2CC[C@H]([C@H](O)CCCCCCCCCC[C@@H]3CC(CC(C)=O)C(=O)O3)O2)O1` (some centres not stated), the GI50 is 14.9 µM and the TGI was more than 50 µM.
Turning to `CCOC(=O)c1cc2c([N+](=O)[O-])c(NC(C)=O)ccc2s1`, the TGI is more than 100 µM.
Still for that read-out and setting: then `Cc1ccc2c(c1C)CC1(Cc3c(ccc4c3CCC4)C1=O)C2=O` (configuration not stated), with more than 100 µM; and `CCC(=O)C(c1ccccc1)c1ccccn1` (configuration not stated), with more than 100 µM; and `CCCN=C1CC(C)Nc2ccccc2N1` (configuration not stated), with more than 100 µM.
The same measure, in the same setting: then `COC(=O)C1=C(C(=O)OC)C2OC1C1C2C2(C)C(C)=C(C)C1(C)S2=O` (configuration not stated), with 26.1 µM; and `C=CCN(CC=C)Cn1c(=S)sc2ccccc21`, with more than 100 µM.
Compound `CC[C@@H]1CC[C@@H]2[C@H](CC[C@]3(C)[C@@H](O)CC[C@@H]23)[C@H]1C(=O)O` returned a TGI of more than 100 µM.
On the same count and under the same terms, then `CCOC(=O)c1c(NC(=O)c2ccccc2)sc2c1CCCC2`, with more than 100 µM.

The test system of a further test is SK-OV-3 ovarian. Put plainly: NCI anticancer screen, dose series, 48 h.
In turn, `O=C1CC(O)c2c1csc2Br` (configuration not stated) gave a TGI of more than 100 µM.
Still for that read-out and setting: the figure for `CCCCCCCCCC[C@@H](O)[C@H]1CC[C@H]([C@H]2CC[C@H]([C@H](O)CCCCCCCCCC[C@@H]3CC(CC(C)=O)C(=O)O3)O2)O1` (some centres not stated) is more than 50 µM; for `CCOC(=O)c1cc2c([N+](=O)[O-])c(NC(C)=O)ccc2s1` it is more than 100 µM; for `Cc1ccc2c(c1C)CC1(Cc3c(ccc4c3CCC4)C1=O)C2=O` (configuration not stated) it is more than 100 µM.
On the same count and under the same terms, the figure for `CCC(=O)C(c1ccccc1)c1ccccn1` (configuration not stated) is more than 100 µM.
The same measure, in the same setting: then `CCCN=C1CC(C)Nc2ccccc2N1` (configuration not stated), with more than 100 µM.
In the case of `COC(=O)C1=C(C(=O)OC)C2OC1C1C2C2(C)C(C)=C(C)C1(C)S2=O` (configuration not stated), the TGI is more than 100 µM.
`C=CCN(CC=C)Cn1c(=S)sc2ccccc21` gave a TGI of more than 100 µM.
On the same count and under the same terms, then `CC[C@@H]1CC[C@@H]2[C@H](CC[C@]3(C)[C@@H](O)CC[C@@H]23)[C@H]1C(=O)O`, with more than 100 µM.
Same read-out and setting: the figure for `CCOC(=O)c1c(NC(=O)c2ccccc2)sc2c1CCCC2` is more than 100 µM.

(Values after PubChem BioAssay (NCI).)
